# Test results taken from ChEMBL document CHEMBL5137113, “Identification of Nitric Oxide-Donating Ripasudil Derivatives with Intraocular Pressure Lowering and Retinal Ganglion Cell Protection Activities” (J Med Chem, 2022).
# Activity calls are given as the source filed them.
# Assays:
# HTM [1] = experiment: Inhibtion of mitochondrial respiration in HTM cells assessed as oxygen consumption rate by measuring decrease in maximal respiration at 10 uM incubated for 1 hr by Seahorse XF24 extracellular flux analyzer; assay type: functional, cell-based; conditions: Homo sapiens
# HTM [2] = experiment: Inhibtion of mitochondrial respiration in HTM cells assessed as repression of oxygen consumption rate at 10 uM incubated for 1 hr by Seahorse XF24 extracellular flux analyzer; assay type: functional, cell-based; conditions: Homo sapiens
# HTM [3] = experiment: Inhibtion of mitochondrial respiration in HTM cells assessed as oxygen consumption rate by measuring decrease in ATP production at 10 uM incubated for 1 hr by Seahorse XF24 extracellular flux analyzer; assay type: functional, cell-based; conditions: Homo sapiens
# HTM [4] = experiment: Inhibtion of mitochondrial respiration in HTM cells assessed as oxygen consumption rate by measuring decrease in basal respiration at 10 uM incubated for 1 hr by Seahorse XF24 extracellular flux analyzer; assay type: functional, cell-based; conditions: Homo sapiens
# [5] = Ocular toxicity in C57BL/6J mouse assessed as effect on conjunctival hyperemia at 0.26% solution administered via topical instillation and measured at 1 to 4 hrs post instillation; conditions: in vivo, topical_or_ocular, time 1-4 hrs, route top
# [6] = target: Rho-associated protein kinase 1 (Homo sapiens, UniProt Q13464); experiment: Inhibition of ROCK1 (unknown origin) using biotin as substrate incubated for 1 hr by HTRF assay
# Chain of Rho-associated protein kinase 1 (Q13464 whole entry): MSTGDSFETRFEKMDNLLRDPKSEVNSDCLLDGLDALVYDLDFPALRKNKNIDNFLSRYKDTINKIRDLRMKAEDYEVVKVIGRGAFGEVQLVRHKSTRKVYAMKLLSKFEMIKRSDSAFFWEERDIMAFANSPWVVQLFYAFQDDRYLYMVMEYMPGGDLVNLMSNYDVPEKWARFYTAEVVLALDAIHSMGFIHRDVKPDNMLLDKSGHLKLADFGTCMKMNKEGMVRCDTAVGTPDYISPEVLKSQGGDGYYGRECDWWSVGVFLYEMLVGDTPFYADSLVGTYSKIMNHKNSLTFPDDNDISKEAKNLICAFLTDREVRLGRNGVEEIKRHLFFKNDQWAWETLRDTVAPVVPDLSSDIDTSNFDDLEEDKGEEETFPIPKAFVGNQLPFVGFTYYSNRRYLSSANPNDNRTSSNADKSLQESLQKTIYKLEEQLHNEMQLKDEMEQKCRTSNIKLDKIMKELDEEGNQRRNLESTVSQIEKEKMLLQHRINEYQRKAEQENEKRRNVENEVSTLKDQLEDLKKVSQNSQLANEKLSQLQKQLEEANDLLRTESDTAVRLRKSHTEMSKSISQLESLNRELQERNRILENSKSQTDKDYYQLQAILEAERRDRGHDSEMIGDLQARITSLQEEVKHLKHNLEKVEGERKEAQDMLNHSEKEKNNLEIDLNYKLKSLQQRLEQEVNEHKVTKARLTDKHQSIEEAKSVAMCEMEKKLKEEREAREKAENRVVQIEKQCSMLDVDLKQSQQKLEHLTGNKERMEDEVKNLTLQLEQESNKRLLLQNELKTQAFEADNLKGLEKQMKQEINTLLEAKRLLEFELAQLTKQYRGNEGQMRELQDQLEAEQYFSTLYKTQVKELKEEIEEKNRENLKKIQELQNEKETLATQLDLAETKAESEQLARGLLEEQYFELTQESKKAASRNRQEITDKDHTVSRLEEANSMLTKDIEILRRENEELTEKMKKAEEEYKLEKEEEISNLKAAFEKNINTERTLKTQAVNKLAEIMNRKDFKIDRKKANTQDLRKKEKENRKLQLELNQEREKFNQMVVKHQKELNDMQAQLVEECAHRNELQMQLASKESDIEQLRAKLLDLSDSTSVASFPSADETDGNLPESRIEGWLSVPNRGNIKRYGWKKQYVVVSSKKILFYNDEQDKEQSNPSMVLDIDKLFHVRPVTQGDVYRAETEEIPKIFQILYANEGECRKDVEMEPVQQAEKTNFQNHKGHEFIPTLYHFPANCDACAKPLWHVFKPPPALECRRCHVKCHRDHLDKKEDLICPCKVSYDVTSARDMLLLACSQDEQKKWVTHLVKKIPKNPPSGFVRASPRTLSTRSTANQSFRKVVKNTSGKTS
# [7] = target: Rho-associated protein kinase 2 (Homo sapiens, UniProt O75116); experiment: Inhibition of ROCK2 (unknown origin) using biotin as substrate incubated for 1 hr by HTRF assay
# Chain of Rho-associated protein kinase 2 (O75116 whole entry): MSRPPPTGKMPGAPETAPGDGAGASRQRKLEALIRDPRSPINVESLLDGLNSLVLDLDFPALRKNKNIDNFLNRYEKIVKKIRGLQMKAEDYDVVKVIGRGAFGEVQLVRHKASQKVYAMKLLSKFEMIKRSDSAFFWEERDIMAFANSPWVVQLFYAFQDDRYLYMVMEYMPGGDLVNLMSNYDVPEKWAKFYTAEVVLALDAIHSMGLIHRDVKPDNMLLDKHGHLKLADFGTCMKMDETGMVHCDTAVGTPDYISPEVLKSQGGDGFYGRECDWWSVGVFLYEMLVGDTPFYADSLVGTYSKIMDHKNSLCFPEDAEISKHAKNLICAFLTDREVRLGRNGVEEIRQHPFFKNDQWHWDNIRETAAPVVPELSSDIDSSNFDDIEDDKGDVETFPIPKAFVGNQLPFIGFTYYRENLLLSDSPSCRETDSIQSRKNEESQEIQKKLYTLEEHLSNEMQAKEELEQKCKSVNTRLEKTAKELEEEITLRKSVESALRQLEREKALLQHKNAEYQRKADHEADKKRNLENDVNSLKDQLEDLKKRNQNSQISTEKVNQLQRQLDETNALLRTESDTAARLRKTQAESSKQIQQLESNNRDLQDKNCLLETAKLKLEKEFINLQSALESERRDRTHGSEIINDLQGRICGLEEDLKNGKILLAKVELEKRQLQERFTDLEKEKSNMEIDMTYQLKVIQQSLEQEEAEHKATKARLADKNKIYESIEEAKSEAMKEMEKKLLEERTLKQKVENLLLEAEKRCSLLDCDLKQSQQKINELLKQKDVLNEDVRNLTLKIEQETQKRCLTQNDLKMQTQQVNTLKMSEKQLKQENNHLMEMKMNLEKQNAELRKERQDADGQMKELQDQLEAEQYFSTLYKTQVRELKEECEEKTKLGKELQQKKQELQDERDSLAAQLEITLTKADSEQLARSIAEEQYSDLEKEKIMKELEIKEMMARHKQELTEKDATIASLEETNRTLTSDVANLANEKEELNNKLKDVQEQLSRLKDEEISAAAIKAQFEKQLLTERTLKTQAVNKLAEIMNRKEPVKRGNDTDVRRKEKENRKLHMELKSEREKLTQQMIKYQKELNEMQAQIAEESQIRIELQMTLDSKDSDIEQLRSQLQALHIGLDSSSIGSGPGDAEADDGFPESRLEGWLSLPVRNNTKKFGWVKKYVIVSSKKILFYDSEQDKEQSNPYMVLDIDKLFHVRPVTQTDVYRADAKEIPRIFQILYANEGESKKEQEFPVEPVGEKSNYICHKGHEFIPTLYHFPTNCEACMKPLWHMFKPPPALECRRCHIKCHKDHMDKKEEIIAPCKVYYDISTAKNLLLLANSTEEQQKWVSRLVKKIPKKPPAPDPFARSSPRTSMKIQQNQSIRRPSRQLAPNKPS
# [8] = Ocular toxicity in New Zealand white albino rabbit assessed as effect on ocular irritation at 0.579% solution administered via topical instillation and measured at 1 to 4 hrs post instillation by draize's test; design: species or system Oryctolagus cuniculus; conditions: in vivo, topical_or_ocular, time 1-4 hrs, route top
# HTM [9] = experiment: Induction of NO release in HTM cells assessed as increase in positive area by DAF-FM DA dye based flow cytometry analysis; assay type: functional, cell-based; conditions: Homo sapiens
# HTM [10] = experiment: Induction of reversible F-actin depolymerization in HTM cells assessed as irregular arrangement of fiber bundles at 10 uM incubated for 1 hr and further incubated for 4 hrs in drug free medium by rhodamine phalloidin staining based confocal scanning microscopic analysis; assay type: cell-based; conditions: Homo sapiens
# HTM [11] = experiment: Induction of NO release in HTM cells assessed as increase in fluorescence intensity by DAF-FM DA dye based flow cytometry analysis; assay type: functional, cell-based; conditions: Homo sapiens
# HTM [12] = experiment: Effect of compound on intracellular cGMP concentration in HTM cells assessed as increase in cGMP level at 10 uM incubated for 24 hrs by ELISA; assay type: functional, cell-based; conditions: Homo sapiens
# HTM [13] = experiment: Downregulation of phosphorylated MLC expression in HTM cells at 10 uM incubated for 1 hr by Western blotting analysis; assay type: functional, cell-based; conditions: Homo sapiens
# HTM [14] = experiment: Effect on MLC expression in HTM cells assessed as reduction in phosphorylated MLC/MLC ratio at 10 uM incubated for 1 hr by densitometry analysis; assay type: functional, cell-based; conditions: Homo sapiens
# Mus musculus [15] = experiment: Antiglaucoma activity in microspheres induced chronic ocular hypertension C57BL/6J mouse model assessed as reduction in intraocular pressure at 0.07% solution administered via topical instillation for three times per day and measured at 1 to 6 hrs post instillation in presence of ripasudil by ophthalmotonometer; assay type: functional, organism-based; conditions: route top, time 1-6 hrs
# [16] = Ocular toxicity in C57BL/6J mouse assessed as effect on conjunctival hyperemia at 0.07% solution administered via topical instillation and measured at 1 to 4 hrs post instillation in presence of ripasudil; conditions: in vivo, topical_or_ocular, time 1-4 hrs, route top
# HTM [17] = experiment: Inhibtion of mitochondrial respiration in HTM cells assessed as oxygen consumption rate by measuring decrease in coupling efficiency at 10 uM incubated for 1 hr by Seahorse XF24 extracellular flux analyzer; assay type: functional, cell-based; conditions: Homo sapiens
# Mus musculus [18] = experiment: Antiglaucoma activity in microspheres induced chronic ocular hypertension C57BL/6J mouse model assessed as increase in visual acuity under maximum contrast condition at 0.26% solution administered via topical instillation and measured after 10 days by optokinetic reflex test; assay type: functional, organism-based; conditions: route top, time 10.0 day
# Mus musculus [19] = experiment: Antiglaucoma activity in microspheres induced chronic ocular hypertension C57BL/6J mouse model assessed as reduction in intraocular pressure at 0.26% solution administered via topical instillation for three times per day and measured at 1 to 6 hrs post instillation by ophthalmotonometer; assay type: functional, organism-based; conditions: route top, time 1-6 hrs
# Mus musculus [20] = experiment: Antiglaucoma activity in microspheres induced chronic ocular hypertension C57BL/6J mouse model assessed as reduction in contrast sensitivity threshold at 0.26% solution administered via topical instillation and measured after 10 days by optokinetic reflex test; assay type: functional, organism-based; conditions: route top, time 10.0 day
# HTM [21] = experiment: Inhibtion of mitochondrial respiration in HTM cells assessed as oxygen consumption rate by measuring decrease in proton leak at 10 uM incubated for 1 hr by Seahorse XF24 extracellular flux analyzer; assay type: functional, cell-based; conditions: Homo sapiens
# Mus musculus [22] = experiment: Antiglaucoma activity in microspheres induced chronic ocular hypertension C57BL/6J mouse model assessed as increase in number of RGCs in retina at 0.26% solution administered via topical instillation and measured after 10 days by immunostaining based confocal microscopic analysis; assay type: functional, organism-based; conditions: route top, time 10.0 day
# [23] = Ocular toxicity in C57BL/6J mouse assessed as effect on conjunctival hyperemia at 0.2% solution administered via topical instillation and measured at 1 to 4 hrs post instillation; conditions: in vivo, topical_or_ocular, time 1-4 hrs, route top
# Mus musculus [24] = experiment: Antiglaucoma activity in microspheres induced chronic ocular hypertension C57BL/6J mouse model assessed as reduction in intraocular pressure at 0.2% solution administered via topical instillation for three times per day and measured at 1 to 6 hrs post instillation by ophthalmotonometer; assay type: functional, organism-based; conditions: route top, time 1-6 hrs
SMILES,Activity (HTM [3]),Activity (HTM [4]),IC50 [6],IC50 [7],Activity (HTM [9]),Activity (HTM [10]),Activity (HTM [11]),Activity (HTM [12]),Activity (HTM [13]),Activity (HTM [14]),further results
CCCCOC(=O)N1CCCN(S(=O)(=O)c2cccc3cncc(F)c23)[C@@H](C)C1,Active,Active,–,–,–,–,–,–,–,–,Activity (HTM [1]): Active; Activity (HTM [2]): Active
C[C@H]1CN(C(=O)OCCCCO[N+](=O)[O-])CCCN1S(=O)(=O)c1cccc2cncc(F)c12.Cl,–,–,34.2 nM,16.6 nM,–,–,–,–,–,–,Activity [5]: Non-Toxic; Activity [8]: Non-Toxic
C[C@H]1CN(C(=O)OCCO[N+](=O)[O-])CCCN1S(=O)(=O)c1cccc2cncc(F)c12,–,–,47.3 nM,58.4 nM,Active,Active,Active,Active,Active,Active,–
C[C@H]1CN(C(=O)OCCCO[N+](=O)[O-])CCCN1S(=O)(=O)c1cccc2cncc(F)c12,–,–,104 nM,25.1 nM,Active,Active,Active,Active,Active,Active,–
C[C@H]1CN(C(=O)O[C@@H]2CO[C@H]3[C@@H]2OC[C@@H]3O[N+](=O)[O-])CCCN1S(=O)(=O)c1cccc2cncc(F)c12,–,–,53.6 nM,19.5 nM,Active,Active,Active,Active,Active,Active,–
O=[N+]([O-])OCCCCO,–,–,–,–,–,–,–,–,–,–,Activity (Mus musculus [15]): Active; Activity [16]: Non-Toxic
C[C@H]1CN(C(=O)OCCCCO[N+](=O)[O-])CCCN1S(=O)(=O)c1cccc2cncc(F)c12 [listing 1 of 2 here],Active,Active,–,–,Active,Active,Active,Active,Active,Active,Activity (HTM [17]): Active; Activity (HTM [1]): Active; Activity (Mus musculus [18]): Active; Activity (HTM [2]): Active; Activity (Mus musculus [19]): Active; Activity (Mus musculus [20]): Active; Activity (HTM [21]): Active; Activity (Mus musculus [22]): Active
C[C@H]1CN(C(=O)OCCCCO[N+](=O)[O-])CCCN1S(=O)(=O)c1cccc2cncc(F)c12 [listing 2 of 2 here],–,–,58.3 nM,47.4 nM,–,–,–,–,–,–,–
C[C@H]1CNCCCN1S(=O)(=O)c1cccc2cncc(F)c12.Cl.O.O [RIPASUDIL HYDROCHLORIDE DIHYDRATE],Active,Active,–,21.4 nM,–,Active,–,–,Active,Active,Activity [23]: Non-Toxic; Activity (Mus musculus [24]): Active
C[C@H]1CN(C(=O)OCCCCCO[N+](=O)[O-])CCCN1S(=O)(=O)c1cccc2cncc(F)c12,–,–,44.6 nM,25.2 nM,Active,Active,Active,Active,Active,Active,–
